# Tested on: M. tuberculosis H37Ra
# Assay: MIC against M. tuberculosis H37Ra, micro broth dilution in microtiter plates
# Details: not given
Compound,MIC against whole cells,MIC
COc1ccc(NC(=O)c2ccc([N+](=O)[O-])o2)cc1Cl [Compound 1],1.6 µg/mL,–
CN(C(=O)c1ccc([N+](=O)[O-])o1)c1ccccc1 [Compound 41],–,3.1 µg/mL

# Same assay, conditions: Mycobacterium tuberculosis, H37RA
row,Compound,MIC
1,"O=C(NCc1ccc(N2CCN(Cc3ccccc3)CC2)cc1)c1ccc([N+](=O)[O-])o1 [Compound 66, 5-Nitro-furan-2-carboxy1ic acid 4-(4-benzyl-piperazin-1-yl)-benzylamide]",0.006 µg/mL
2,CN1CCN(C(=O)c2ccc([N+](=O)[O-])o2)CC1 [Compound 76],37.5 µg/mL

# Same assay, conditions: Mycobacterium tuberculosis, H37RA, 168 h, read-out: TB MIC, Table 1; M. tuberculosis H37Ra, 7 days, MIC90 (>90% inhibition of growth)
row,Compound,MIC
1,"O=C(NC1CCCCC1)c1ccc([N+](=O)[O-])o1 [Compound 15, 5-Nitro-furan-2-carboxylic acid cyclohexylamide]",3.1 µg/mL
2,"O=C(NC12CC3CC(CC(C3)C1)C2)c1ccc([N+](=O)[O-])o1 [Compound 16, 5-Nitro-furan-2-carboxylic acid adamantan-1-ylamide]",3.1 µg/mL
3,"O=C(Nc1ccccc1)c1ccc([N+](=O)[O-])o1 [Compound 17, 5-Nitro-furan-2-carboxylic acid phenylamide]",0.8 µg/mL
4,"COc1ccc(CNC(=O)c2ccc([N+](=O)[O-])o2)cc1 [Compound 20, 5-Nitro-furan-2-carboxylic acid 4-methoxy-benzylamide]",0.1 µg/mL
5,"O=C(NCc1ccccc1Cl)c1ccc([N+](=O)[O-])o1 [Compound 21, 5-Nitro-furan-2-carboxylic acid 2-chloro-benzylamide]",1.6 µg/mL
6,"COc1cc(CNC(=O)c2ccc([N+](=O)[O-])o2)cc(OC)c1OC [Compound 24, 5-Nitro-furan-2-carboxylic acid 3,4,5-trimethoxy-benzylamide]",0.8 µg/mL
7,"O=C(NC1CCc2ccccc21)c1ccc([N+](=O)[O-])o1 (centres unmarked) [Compound 26, 5-Nitro-furan-2-carboxylic acid indan-1-ylamide]",3.1 µg/mL
8,"O=C(NCCc1ccccc1)c1ccc([N+](=O)[O-])o1 [Compound 27, 5-Nitro-furan-2-carboxylic acid phenethyl-amide]",1.6 µg/mL
9,"COc1ccc(CNC(=O)c2ccc(Br)o2)cc1 [Compound 32, 5-Bromo-furan-2-carboxylic acid 4-methoxy-benzylamide]",200 µg/mL
10,"COc1cccc(NC(=O)c2ccc(S(=O)(=O)O)o2)c1 [Compound 34, 5-(3-Methoxy-phenylcarbamoyl)-furan-2-sulfonic acid]",200 µg/mL
11,"O=C(Nc1cccc(O)c1)c1ccc([N+](=O)[O-])o1 [Compound 35, 5-Nitro-furan-2-carboxylic acid(3-hydroxy-phenyl)-amide]",1.6 µg/mL
12,"COc1cccc(NC(=O)c2ccc([S+]([O-])c3ccccc3)o2)c1 (centres unmarked) [Compound 38, 5-Benzenesulfinyl-furan-2-carboxylic acid(3-methoxy-phenyl)-amide]",6.25 µg/mL
13,"COc1cccc(NC(=O)c2ccc(S(=O)(=O)c3ccccc3)o2)c1 [Compound 39, 5-Benzenesulfonyl-furan-2-carboxylic acid(3-methoxy-phenyl)-amide]",6.25 µg/mL
14,"CCOC(=O)c1ccc(C(=O)Nc2cccc(OC)c2)o1 [Compound 40, 5-(3-Methoxy-phenylcarbamoyl)-furan-2-carboxylic acid ethyl ester]",400 µg/mL
15,"O=C(Nc1cnccn1)c1ccc([N+](=O)[O-])o1 [Compound 48, 5-Nitro-furan-2-carboxylic acid pyrazin-2-ylamide]",6.25 µg/mL
16,"COc1ccccc1CNC(=O)c1ccc([N+](=O)[O-])o1 [Compound 52, 5-nitro-furan-2-carboxylic acid 2-methoxy-benzylamide]",1.6 µg/mL
17,"COc1cccc(CNC(=O)c2ccc([N+](=O)[O-])o2)c1OC [Compound 53, 5-nitro-furan-2-carboxylic acid 2,3-dimethoxy-benzylamide]",1.2 µg/mL

# Same assay, conditions: Mycobacterium tuberculosis, H37RA, Table 4; M. tuberculosis H37Ra, MIC90
row,Compound,MIC
1,"O=C(Nc1ccc(N2CCOCC2)cc1)c1ccc([N+](=O)[O-])o1 [Compound 54, 5-Nitro-furan-2-carboxylic acid(4-morpholin-4-yl-phenyl)-amide]",1.6 µg/mL
2,"CN1CCN(c2ccc(NC(=O)c3ccc([N+](=O)[O-])o3)cc2)CC1 [Compound 55, 5-Nitro-furan-2-carboxylic acid[4-(4-methyl-piperazin-1-yl)-phenyl]-amide]",6.25 µg/mL
3,"O=C(Nc1ccc(N2CCN(Cc3ccccc3)CC2)cc1)c1ccc([N+](=O)[O-])o1 [Compound 56, 5-Nitro-furan-2-carboxylic acid[4-(4-benzyl-piperazin-1-yl)-phenyl]-amide]",0.8 µg/mL
4,"O=C(Nc1ccc(N2CCC(Cc3ccccc3)CC2)cc1)c1ccc([N+](=O)[O-])o1 [Compound 57, 5-Nitro-furan-2-carboxylic acid[4-(4-benzyl-piperidin-1-y1)-phenyl]-amide]",3.1 µg/mL
5,"O=C(Nc1ccc(N2CCN(c3ccccn3)CC2)cc1)c1ccc([N+](=O)[O-])o1 [Compound 58, 5-Nitro-furan-2-carboxylic acid. [4-(4-pyridin-2-yl-piperazin-1-yl)-phenyl]-amide]",0.4 to 0.8 µg/mL
6,"O=C(Nc1cccc(N2CCOCC2)c1)c1ccc([N+](=O)[O-])o1 [Compound 59, 5-Nitro-furan-2-carboxylic acid(3-morpholin-4-yl-phenyl)-amide]",3.1 µg/mL
7,"CN1CCN(c2cccc(NC(=O)c3ccc([N+](=O)[O-])o3)c2)CC1 [Compound 60, 5-Nitro-furan-2-carboxylic acid[3-(4-methyl-piperazin-1-yl)-phenyl]-amide]",12.5 µg/mL
8,"O=C(Nc1cccc(N2CCN(Cc3ccccc3)CC2)c1)c1ccc([N+](=O)[O-])o1 [Compound 61, 5-Nitro-furan-2-carboxylic acid[3-(4-benzyl-piperazin-1-yl)-phenyl]-amide]",12.5 µg/mL
9,"O=C(Nc1cccc(N2CCC(Cc3ccccc3)CC2)c1)c1ccc([N+](=O)[O-])o1 [Compound 62, 5-Nitro-furan-2-carboxylic acid[3-(4-benzyl-piperidin-1-yl)-phenyl]-amide]",12.5 µg/mL
10,"O=C(Nc1cccc(N2CCN(c3ccccn3)CC2)c1)c1ccc([N+](=O)[O-])o1 [Compound 63, 5-Nitro-furan-2-carboxylic acid[3-(4-pyridin-2-yl-piperazin-1-yl)-phenyl]-amide]",1.6 µg/mL
11,"O=C(NCc1ccc(N2CCOCC2)cc1)c1ccc([N+](=O)[O-])o1 [Compound 64, 5-Nitro-furan-2-carboxylic acid 4-morpholin-4-yl-benzylamide]",0.1 µg/mL
12,"O=C(NCc1ccc(N2CCN(Cc3ccccc3)CC2)cc1)c1ccc([N+](=O)[O-])o1 [Compound 66, 5-Nitro-furan-2-carboxy1ic acid 4-(4-benzyl-piperazin-1-yl)-benzylamide]",0.0062 µg/mL
13,"O=C(NCc1ccc(N2CCC(Cc3ccccc3)CC2)cc1)c1ccc([N+](=O)[O-])o1 [Compound 67, 5-Nitro-furan-2-carboxylic acid 4-(4-benzyl-piperidin-1-yl)-benzylamide]",< 0.1 µg/mL
14,"CN1CCN(c2cccc(CNC(=O)c3ccc([N+](=O)[O-])o3)c2)CC1 [Compound 68, 5-Nitro-furan-2-carboxylic acid 3-(4-methyl-piperazin-1-yl)-benzylamide]",3.1 µg/mL
15,"O=C(NCc1cccc(N2CCN(Cc3ccccc3)CC2)c1)c1ccc([N+](=O)[O-])o1 [Compound 69, 5-Nitro-furan-2-carboxylic acid 3-(4-benzyl-piperazin-1-yl)-benzylamide]",< 0.1 µg/mL
16,"O=C(NCc1cccc(N2CCC(Cc3ccccc3)CC2)c1)c1ccc([N+](=O)[O-])o1 [Compound 70, 5-Nitro-furan-2-carboxylic acid 3-(4-benzyl-piperidin-1-yl)-benzylamide]",0.0062 µg/mL
17,O=C(c1ccc([N+](=O)[O-])o1)N1Cc2ccccc2C1 [Compound 71],0.78 µg/mL

# Same assay, conditions: Mycobacterium tuberculosis, H37RA, Table 5; M. tuberculosis H37Ra, MIC90
row,Compound,MIC
1,O=C(c1ccc([N+](=O)[O-])o1)N1CCC(Cc2ccccc2)CC1 [Compound 72],0.29 µg/mL
2,O=C(c1ccc([N+](=O)[O-])o1)N1CCN(Cc2ccccc2)CC1 [Compound 73],0.59 µg/mL
3,O=C(NCc1ccc2c(c1)OCO2)c1ccc([N+](=O)[O-])o1 [Compound 74],0.15 µg/mL
4,COc1cc2c(cc1OC)CN(C(=O)c1ccc([N+](=O)[O-])o1)CC2 [Compound 75],0.15 µg/mL
5,CN1CCN(C(=O)c2ccc([N+](=O)[O-])o2)CC1 [Compound 76],37.5 µg/mL
6,CC(C)NC(=O)CN1CCN(C(=O)c2ccc([N+](=O)[O-])o2)CC1 [Compound 78],6.25 µg/mL
7,O=C(c1ccc([N+](=O)[O-])o1)N1CCC(O)(Cc2ccccc2)CC1 [Compound 79],1.56 µg/mL
8,O=C(c1ccc([N+](=O)[O-])o1)N1CCN(C2CCCCC2)CC1 [Compound 80],6.25 µg/mL
9,COc1ccccc1N1CCN(C(=O)c2ccc([N+](=O)[O-])o2)CC1 [Compound 82],1.56 µg/mL
10,O=C(c1ccc([N+](=O)[O-])o1)N1CCN(Cc2cccc(O)c2)CC1 [Compound 83],0.8 µg/mL
11,O=C(c1ccc([N+](=O)[O-])o1)N1CCN(Cc2ccc(O)cc2)CC1 [Compound 84],1.56 µg/mL
12,COc1ccc(CN2CCN(C(=O)c3ccc([N+](=O)[O-])o3)CC2)cc1 [Compound 85],< 0.1 µg/mL
13,COc1cccc(CN2CCN(C(=O)c3ccc([N+](=O)[O-])o3)CC2)c1 [Compound 86],1.56 µg/mL
14,O=C(c1ccc([N+](=O)[O-])o1)N1CCN(Cc2cccc(OCc3ccccc3)c2)CC1 [Compound 87],1.56 µg/mL
15,CCN(CC)c1ccc(CN2CCN(C(=O)c3ccc([N+](=O)[O-])o3)CC2)cc1 [Compound 88],< 0.1 µg/mL
16,COc1ccc(CN2CCN(C(=O)c3ccc([N+](=O)[O-])o3)CC2)c(OC)c1 [Compound 89],< 0.1 µg/mL
17,CC(=O)c1ccc(N2CCN(C(=O)c3ccc([N+](=O)[O-])o3)CC2)cc1 [Compound 91],< 10.1 µg/mL

# Same assay, conditions: Mycobacterium tuberculosis, H37RA, Table 6; M. tuberculosis H37Ra, MIC90
row,Compound,MIC
1,"O=C(NCc1ccc(N2CCSCC2)cc1)c1ccc([N+](=O)[O-])o1 [Compound 92, 5-Nitro-furan-2-carboxylic acid 4-thiomorpholin-4-yl-benzylamide]",0.05 µg/mL

# Same assay, conditions: Table 5; M. tuberculosis H37Ra, MIC90
row,Compound,MIC
1,O=C(c1ccc([N+](=O)[O-])o1)N1CCN(c2ncccn2)CC1 [Compound 77],0.025 µg/mL
2,O=C(c1ccc([N+](=O)[O-])o1)N1CCN(c2ncccn2)CC1 [Compound 81],0.1 µg/mL

# Same assay, conditions: against H37Ra; in words
row,Compound,MIC activity compared with classical TB drugs (FIG. 1)
1,"O=C(NCc1ccc(N2CCN(Cc3ccccc3)CC2)cc1)c1ccc([N+](=O)[O-])o1 [Compound 66, 5-Nitro-furan-2-carboxy1ic acid 4-(4-benzyl-piperazin-1-yl)-benzylamide]",more active than isoniazid

# From patent US20050026968A1, “Heterocyclic amides with anti-tuberculosis activity” (priority 2003, published 2005)
